Consider twelve molecules from ChEMBL document CHEMBL1128166, “Synthesis and antiviral activity of rigid acyclonucleotide analogs” (Bioorg Med Chem Lett, 1995).

As a reminder, the EC50 is the concentration that produces a half-maximal response. A lower EC50 goes with a more potent agent. As a reminder, the CC50 is the concentration at which the toxic effect on the cells reaches its halfway point. A word on the Km: it is the concentration of substrate that gives half-maximal velocity.

Series [1] relates to MT4. Kind of series: Concentration required to inhibit HIV-1-induced cytopathic effect by 50% in MT-4 cells. The conditions noted are these: Homo sapiens. The class given is functional, cell-based.
The test system of series [2] is MT4. Kind of series: Cytotoxic concentration required to reduce the viability of MT-4 cells. It counts as functional. The conditions noted are these: Homo sapiens.
Series [3] relates to Vero. The series is described as follows: Anti-herpes virus activity was evaluated against Herpes simplex virus type 1 (HSV-1,strain HF) grown in Vero cells. The class given is functional, cell-based. Particulars: Chlorocebus sabaeus.
Series [4] concerns Vero. The series is described as follows: Anti-herpes virus activity was evaluated against Herpes simplex virus type 2 (HSV-2,strain G) grown in Vero cells. The class given is functional, cell-based. Particulars: Chlorocebus sabaeus.
Series [5] has as its system Vero. Kind of series: The lowest concentration of compound producing overt cytotoxicity in virus-free vero cell cultures. The conditions noted are these: Chlorocebus sabaeus. It counts as functional.
The next series relates to C8166. The series is described as follows: Concentration required to inhibit p24 viral antigen production by 50% in C-8166 cells. It counts as functional, cell-based. Particulars: Homo sapiens.
Series [6] concerns MRC5. Kind of series: Anti-herpes virus activity was evaluated against human cytomegalovirus (HCMV, strain AD-169) grown in MRC-5 cells. The class given is functional, cell-based.
The test system of series [7] is MRC5. The series is described as follows: The lowest concentration of compound producing overt cytotoxicity in virus-free MRC-5 cell cultures. The conditions noted are these: Homo sapiens. It counts as functional.
The test system of series [8] is Guanylate kinase (Sus scrofa). Kind of series: Percent efficiency phosphorylated by guanylate kinase taken from hog brain.
Substrate in series [9]: C=C(COCP(=O)(O)O)Cn1cnc2c(O)nc(N)nc21
Kind of series: Vmax for guanylate kinase was determined. The conditions noted are these: Sus scrofa.

Substrate in series [10]: C=C(COCP(=O)(O)O)Cn1cnc2c(O)nc(N)nc21
The series is described as follows: (§1) Michaelis-Menten constant (Km) for guanylate kinase was determined. The conditions noted are these: Sus scrofa.

Substrate in series [11]: Nc1nc2c(ncn2[C@@H]2O[C@H](COP(=O)(O)O)[C@@H](O)[C@H]2O)c(=O)[nH]1
The series is described as §1.

For `Nc1ncnc2c1ncn2CC#CCOCP(=O)(O)O`, the EC50 in the series with MT4 [1] was greater than 100 µM; in the series with Vero [3], greater than 250 µM; in the series on Vero [4], greater than 250 µM; in the series on C8166, greater than 100 µM; in the series on MRC5 [6], greater than 250 µM. Also, the figures for the CC50 with MT4 [2], in the series on Vero [5] and in the series on MRC5 [7] were 800 µM, no less than 250 µM and greater than 250 µM, respectively.

Regarding `Cc1cn([C@H]2C[C@H](N=[N+]=[N-])[C@@H](CO)O2)c(=O)[nH]c1=O` [ZIDOVUDINE], the EC50 with MT4 [1] was 0.035 µM; in the series with C8166, 0.03 µM. It took 113 µM to reach half-maximal cytotoxicity in the series on MT4 [2] (CC50).

In the case of `Nc1ccn(C/C=C\COCP(=O)(O)O)c(=O)n1`, the EC50 was greater than 100 µM with MT4 [1]; greater than 250 µM in the series on Vero [3]; greater than 250 µM in the series on Vero [4]; greater than 100 µM in the series with C8166; greater than 250 µM with MRC5 [6]. Also, the results for the CC50 in the series with MT4 [2], in the series on Vero [5] and with MRC5 [7] were greater than 100 µM, greater than 250 µM and greater than 250 µM, respectively.

On to `C=C(COCP(=O)(O)O)Cn1cnc2c(N)ncnc21`, for which the EC50 in the series on MT4 [1] was greater than 100 µM; with Vero [3] it was 36 µM; in the series with Vero [4], greater than 250 µM; in the series on C8166, greater than 100 µM; with MRC5 [6] it was greater than 250 µM. Further, the values for the CC50 with MT4 [2], in the series on Vero [5] and in the series with MRC5 [7] were greater than 1000 µM, greater than 250 µM and greater than 250 µM, respectively.

As to `C=C(COCP(=O)(O)O)Cn1ccc(N)nc1=O`, the EC50 is greater than 100 µM in the series on MT4 [1]; greater than 250 µM in the series on Vero [3]; greater than 250 µM in the series with Vero [4]; greater than 100 µM in the series with C8166; greater than 250 µM in the series with MRC5 [6]. Also, the figures for the CC50 with MT4 [2], in the series with Vero [5] and in the series on MRC5 [7] were greater than 100 µM, greater than 250 µM and greater than 250 µM, respectively.

Consider `Nc1ncnc2c1ncn2CCOCP(=O)(O)O` [ADEFOVIR], for which the EC50 in the series with MT4 [1] is 22 µM; in the series with Vero [3], 58 µM; in the series with Vero [4], 69 µM; in the series with C8166, 1.7 µM; with MRC5 [6], 36 µM. Besides, the values for the CC50 in the series with MT4 [2], with Vero [5] and in the series with MRC5 [7] were 187 µM, no less than 250 µM and greater than 250 µM, respectively.

`C=C(COCP(=O)(O)O)Cn1cnc2c(O)nc(N)nc21`: the EC50 with MT4 [1] is 25 µM; in the series with Vero [3], greater than 250 µM; in the series on Vero [4], greater than 250 µM; in the series with C8166, 1.9 µM; in the series on MRC5 [6], 34 µM. For the same molecule, the values for the CC50 in the series on MT4 [2], in the series with Vero [5] and in the series with MRC5 [7] were 1800 µM, greater than 250 µM and greater than 250 µM, respectively. The molecule also displayed an Efficacy in series [8] of 0.6%.

For `Nc1ncnc2c1ncn2C/C=C\COCP(=O)(O)O`, the EC50 was 170 µM in the series with MT4 [1]; greater than 250 µM in the series on Vero [3]; greater than 250 µM in the series on Vero [4]; 38 µM in the series with C8166; greater than 250 µM with MRC5 [6]. Also, the CC50 was greater than 1000 µM with MT4 [2], no less than 250 µM in the series with Vero [5] and greater than 250 µM with MRC5 [7].

Take `Nc1ccn(CC#CCOCP(=O)(O)O)c(=O)n1`: the EC50 is greater than 100 µM with MT4 [1]; greater than 250 µM with Vero [3]; greater than 250 µM in the series with Vero [4]; greater than 100 µM in the series with C8166; greater than 250 µM with MRC5 [6]. For the same molecule, the figures for the CC50 in the series on MT4 [2], with Vero [5] and in the series with MRC5 [7] were greater than 100 µM, greater than 250 µM and greater than 250 µM, respectively.

On to `Nc1nc(O)c2ncn(C/C=C\COCP(=O)(O)O)c2n1`, for which the EC50 with MT4 [1] was greater than 100 µM; with Vero [3], 37 µM; with Vero [4], greater than 250 µM; with C8166, greater than 100 µM; in the series with MRC5 [6] it was greater than 250 µM. Besides, the cytotoxic concentration (CC50) with MT4 [2] is greater than 1000 µM; in the series with Vero [5], greater than 250 µM; with MRC5 [7], greater than 250 µM.

Consider `Nc1nc2c(ncn2COCCO)c(=O)[nH]1` [ACYCLOVIR], for which the EC50 was found to be 6 µM in the series with Vero [3], 3 µM in the series with Vero [4] and 18 µM in the series with MRC5 [6]. In addition, the cytotoxic concentration (CC50) was greater than 100 µM in the series on Vero [5] and no less than 100 µM in the series with MRC5 [7].

B1: Guanylate kinase (Homo sapiens), Q16774 (protein)
chain: MSGPRPVVLSGPSGAGKSTLLKRLLQEHSGIFGFSVSHTTRNPRPGEENGKDYYFVTREVMQRDIAAGDFIEHAEFSGNLYGTSKVAVQAVQAMNRICVLDVDLQGVRNIKATDLRPIYISVQPPSLHVLEQRLRQRNTETEESLVKRLAAAQADMESSKEPGLFDVVIINDSLDQAYAELKEALSEEIKKAQRTGA
For the molecule B1, the Vmax in series [9] stood at 8%. Moreover, the Km in series [10] came out at 238 µM; in [11] it was 18 µM.
